Source: patent publication US20150335657A1, “Methods for Modulating Sirtuin Enzymes” (The Trustees of Princeton University, priority 2014, published 2015)

How the values were obtained:
[1] = target: T1, SIRT1 (Homo sapiens, UniProt Q96EB6); assay: Sirtuin deacetylase enzyme activity assay (Cayman Chemical), compound screen; type: biochemical; conditions: compound at 50 μM; Z-score of change in fluorescent signal; + increase, − decrease
T1 construct: purchased Cayman Chemical
T1 sequence (Q96EB6 1-747): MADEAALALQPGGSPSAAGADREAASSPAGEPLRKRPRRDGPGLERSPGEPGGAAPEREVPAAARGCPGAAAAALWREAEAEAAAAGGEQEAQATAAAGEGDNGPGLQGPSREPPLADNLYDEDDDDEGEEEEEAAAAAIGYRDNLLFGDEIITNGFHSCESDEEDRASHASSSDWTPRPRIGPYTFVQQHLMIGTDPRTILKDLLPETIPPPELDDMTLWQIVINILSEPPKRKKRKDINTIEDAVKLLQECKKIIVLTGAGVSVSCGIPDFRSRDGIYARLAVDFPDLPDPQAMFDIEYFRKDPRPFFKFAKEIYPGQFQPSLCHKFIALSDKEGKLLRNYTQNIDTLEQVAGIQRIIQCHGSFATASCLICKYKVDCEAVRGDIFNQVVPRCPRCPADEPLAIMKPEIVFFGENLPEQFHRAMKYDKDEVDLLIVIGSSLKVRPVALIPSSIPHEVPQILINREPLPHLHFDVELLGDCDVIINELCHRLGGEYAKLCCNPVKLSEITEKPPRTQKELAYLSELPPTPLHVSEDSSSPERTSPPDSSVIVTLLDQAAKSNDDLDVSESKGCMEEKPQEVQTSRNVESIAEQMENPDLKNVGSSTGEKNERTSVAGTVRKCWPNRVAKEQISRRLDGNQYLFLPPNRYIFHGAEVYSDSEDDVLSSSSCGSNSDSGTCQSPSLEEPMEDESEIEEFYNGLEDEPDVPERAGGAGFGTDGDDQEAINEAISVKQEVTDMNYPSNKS
Source text: (§1) Sirtuins have been identified as innate viral restriction factors and it has been previously shown that drugs that modulate the activity of these enzymes block the production of multiple viruses in culture (see, e.g., WO 2012/106509). Sirtuins are NAD-dependent enzymes that regulate the activity of target proteins by post-translational modifications and thereby control key cellular events (see, e.g., Haigis and Sinclair (2010) Ann Rev Pathol Mech Dis 5:253-95). SIRT1, SIRT2, SIRT3 and SIRT6 have shown a detectable deacetylase activity in well-established biochemical assays that utilize recombinant SIRT1, SIRT2, SIRT3, and SIRT6 enzymes and fluorophore-conjugated acetyl-peptides. As described in the Examples below, the deacetylase activity of these sirtuins were used as a surrogate to identify compounds having broad-range antiviral activity.
(§2) A publically disclosed, small molecule library consisting of approximately 13,000 compounds was screened using a commercially available (Cayman Chemical) enzyme activity assay. Deacetylase activity of sirtuins SIRT1, SIRT2, SIRT3, and SIRT6 was used as a surrogate to identify compounds with the potential for having broad-range antiviral activity. The compounds were tested at a single concentration (50 μM) in microtiter plates and their activity against the four sirtuins was recorded as a change in fluorescent signal intensity. […] Activation of sirtuin activity generated positive Z-scores and inhibition of sirtuin activity produced negative Z-scores.

[2] = target: T2, SIRT3 (Homo sapiens, UniProt Q9NTG7); assay: as above; type: biochemical; conditions: compound at 50 μM; Z-score of change in fluorescent signal; + increase, − decrease
T2 construct: purchased Cayman Chemical
T2 sequence (Q9NTG7 1-399): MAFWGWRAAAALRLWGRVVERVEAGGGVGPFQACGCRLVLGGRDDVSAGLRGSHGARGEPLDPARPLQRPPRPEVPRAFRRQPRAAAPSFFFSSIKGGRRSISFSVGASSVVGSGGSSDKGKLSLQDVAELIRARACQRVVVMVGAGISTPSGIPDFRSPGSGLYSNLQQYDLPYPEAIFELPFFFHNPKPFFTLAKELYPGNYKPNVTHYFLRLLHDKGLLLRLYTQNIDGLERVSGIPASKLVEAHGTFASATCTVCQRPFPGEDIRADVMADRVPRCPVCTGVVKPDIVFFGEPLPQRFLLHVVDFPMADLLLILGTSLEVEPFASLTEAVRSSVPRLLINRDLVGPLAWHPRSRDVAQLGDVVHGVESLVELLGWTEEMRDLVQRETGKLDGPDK
Source text: as §1, §2

[3] = target: T3, SIRT2 (Homo sapiens, UniProt Q8IXJ6); assay: as above; type: biochemical; conditions: compound at 50 μM; Z-score of change in fluorescent signal; + increase, − decrease
T3 construct: purchased Cayman Chemical
T3 sequence (Q8IXJ6 1-389): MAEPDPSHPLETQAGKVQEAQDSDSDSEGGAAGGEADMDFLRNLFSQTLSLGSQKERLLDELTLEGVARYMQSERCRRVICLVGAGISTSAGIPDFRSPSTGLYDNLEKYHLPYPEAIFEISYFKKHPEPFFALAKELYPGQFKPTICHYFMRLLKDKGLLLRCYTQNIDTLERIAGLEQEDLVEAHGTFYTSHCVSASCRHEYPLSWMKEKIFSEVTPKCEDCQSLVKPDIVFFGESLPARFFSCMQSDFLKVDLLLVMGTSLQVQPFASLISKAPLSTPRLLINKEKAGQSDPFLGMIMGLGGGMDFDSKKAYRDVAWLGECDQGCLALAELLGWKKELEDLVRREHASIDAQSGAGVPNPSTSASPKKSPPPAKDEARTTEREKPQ
Source text: as §1, §2

[4] = target: T4, SIRT6 (Homo sapiens, UniProt Q8N6T7); assay: as above; type: biochemical; conditions: compound at 50 μM; Z-score of change in fluorescent signal; + increase, − decrease
T4 construct: purchased Cayman Chemical
Source text: as §1, §2

[5] = tested on: human cytomegalovirus (HCMV) AD169 strain; assay: Antiviral activity against HCMV in MRC5 fibroblasts (virus yield, fluorescent focus assay); type: cell-based; conditions: Human betaherpesvirus 5, HCMV AD169, 1 infectious unit/cell, treated 2 h after infection, virus in medium at 96 h
[6] = Tetrazolium-based cell viability assay (cytotoxicity); conditions: human

T4 sequence (Q8N6T7 whole entry): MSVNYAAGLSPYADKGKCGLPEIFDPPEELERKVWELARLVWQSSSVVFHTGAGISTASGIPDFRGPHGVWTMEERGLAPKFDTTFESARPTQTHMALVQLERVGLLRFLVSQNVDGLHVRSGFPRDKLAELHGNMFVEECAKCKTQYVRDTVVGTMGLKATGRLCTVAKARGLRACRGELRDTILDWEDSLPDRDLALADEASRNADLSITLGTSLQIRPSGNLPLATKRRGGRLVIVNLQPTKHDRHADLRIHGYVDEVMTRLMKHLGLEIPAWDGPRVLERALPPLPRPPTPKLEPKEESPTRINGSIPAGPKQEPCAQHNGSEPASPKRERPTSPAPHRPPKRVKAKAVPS

Row | SMILES | SIRT1 (change in sirtuin deacetylase activity, Z-score class) [1] | SIRT3 (change in sirtuin deacetylase activity, Z-score class) [2] | SIRT2 (change in sirtuin deacetylase activity, Z-score class) [3] | SIRT6 (change in sirtuin deacetylase activity, Z-score class) [4] | IC50 [5] | IC90 [5] | CC50 at 96 h [6]
1 | CC(c1cnc2ccccc2c1)C(F)C1N(Cc2ccccc2)C(=O)c2cccnc2N1C (centres unmarked) | +++ (Z-score ≧ 3 = +++) | +++ (Z-score ≧ 3 = +++) | +++ (Z-score ≧ 3 = +++) | +++ (Z-score ≧ 3 = +++) | 1.74 µM | 16.1 µM | > 50 µM
2 | CC(c1ccccc1Cl)C1CN(C2CCC(O)CC2)S(=O)(=O)c2c(F)cccc2O1 (centres unmarked) | na (−2 ≦ Z-score < 2 = no activity (na)) | na (−2 ≦ Z-score < 2 = no activity (na)) | na (−2 ≦ Z-score < 2 = no activity (na)) | +++ (Z-score ≧ 3 = +++) | 2.33 µM | 31.3 µM | > 50 µM
3 | CC(c1ccc2nccnc2c1)c1cnc(N2CCc3ccccc3C2)s1 (centres unmarked) | −− (−3 < Z-score ≦ −2 = −−) | na (−2 ≦ Z-score < 2 = no activity (na)) | −− (−3 < Z-score ≦ −2 = −−) | na (−2 ≦ Z-score < 2 = no activity (na)) | 4.58 µM | 5.95 µM | > 50 µM
4 | CC(c1cnc2ccccc2c1)C(F)CNc1cnc2ccccc2c1 (centres unmarked) | na (−2 ≦ Z-score < 2 = no activity (na)) | na (−2 ≦ Z-score < 2 = no activity (na)) | na (−2 ≦ Z-score < 2 = no activity (na)) | +++ (Z-score ≧ 3 = +++) | 6.89 µM | 17.6 µM | > 50 µM
5 | CCOc1cc(C)n(C(CNc2cnc3ccccc3c2)C(C)c2cccnc2C)n1 (centres unmarked) | ++ (2 ≦ Z-score < 3 = ++) | +++ (Z-score ≧ 3 = +++) | ++ (2 ≦ Z-score < 3 = ++) | +++ (Z-score ≧ 3 = +++) | 8.26 µM | 33.9 µM | > 50 µM
6 | Cc1cc(-c2ccccc2)nn1C1CN(Cc2cccc(C(F)(F)F)c2)C(=O)C1C(C)C (centres unmarked) | ++ (2 ≦ Z-score < 3 = ++) | na (−2 ≦ Z-score < 2 = no activity (na)) | na (−2 ≦ Z-score < 2 = no activity (na)) | ++ (2 ≦ Z-score < 3 = ++) | 8.43 µM | 18.8 µM | 25 to 50 µM
7 | CCOc1cc(C(C)C)n(C(CNc2cnc3ccccc3c2)C(C)c2cccnc2C)n1 (centres unmarked) | +++ (Z-score ≧ 3 = +++) | +++ (Z-score ≧ 3 = +++) | na (−2 ≦ Z-score < 2 = no activity (na)) | +++ (Z-score ≧ 3 = +++) | 9.32 µM | 41.3 µM | > 50 µM
8 | CC(c1ccncc1)C(O)Cn1cc(-c2cc(Cl)cnc2N)nn1 (centres unmarked) | +++ (Z-score ≧ 3 = +++) | ++ (2 ≦ Z-score < 3 = ++) | na (−2 ≦ Z-score < 2 = no activity (na)) | +++ (Z-score ≧ 3 = +++) | 9.71 µM | 33.8 µM | > 50 µM
9 | CCCN1CC(C(C)c2ccccc2OC)N(c2cccnc2)C1=O (centres unmarked) | na (−2 ≦ Z-score < 2 = no activity (na)) | na (−2 ≦ Z-score < 2 = no activity (na)) | na (−2 ≦ Z-score < 2 = no activity (na)) | +++ (Z-score ≧ 3 = +++) | 9.91 µM | 32.2 µM | > 50 µM
10 | CNC(=O)c1cccc(CN(CCC(C)C(C)C)S(=O)(=O)c2c(C)noc2C)c1 (centres unmarked) | na (−2 ≦ Z-score < 2 = no activity (na)) | na (−2 ≦ Z-score < 2 = no activity (na)) | na (−2 ≦ Z-score < 2 = no activity (na)) | +++ (Z-score ≧ 3 = +++) | 10.2 µM | 32.8 µM | 25 to 50 µM
11 | Cc1nn(C2CN(CCn3ccnc3)C(=O)C2c2ccccc2)c(C)c1C (centres unmarked) | −−− (Z-score ≦ −3 = −−−) | −−− (Z-score ≦ −3 = −−−) | −−− (Z-score ≦ −3 = −−−) | na (−2 ≦ Z-score < 2 = no activity (na)) | 11 µM | 38.5 µM | > 50 µM
12 | CNC(=O)c1cccc(CN(CCC(C)C(C)C)S(=O)(=O)c2cn(C)cn2)c1 (centres unmarked) | na (−2 ≦ Z-score < 2 = no activity (na)) | na (−2 ≦ Z-score < 2 = no activity (na)) | ++ (2 ≦ Z-score < 3 = ++) | na (−2 ≦ Z-score < 2 = no activity (na)) | 13.4 µM | 41.8 µM | > 50 µM
13 | CC(c1ccc(F)cc1)C(O)Cn1cc(-c2cc(Cl)cnc2N)nn1 (centres unmarked) | +++ (Z-score ≧ 3 = +++) | na (−2 ≦ Z-score < 2 = no activity (na)) | na (−2 ≦ Z-score < 2 = no activity (na)) | ++ (2 ≦ Z-score < 3 = ++) | 15.1 µM | 35.6 µM | > 50 µM
14 | Cc1ccccc1C(C)C(CO)NC(=O)c1cn(C)cn1 (centres unmarked) | −−− (Z-score ≦ −3 = −−−) | na (−2 ≦ Z-score < 2 = no activity (na)) | −−− (Z-score ≦ −3 = −−−) | −− (−3 < Z-score ≦ −2 = −−) | 15.8 µM | 41.9 µM | > 50 µM
